Assay results published in patent US20190177774A1, “MOLECULAR REFERENCE CONTROLS” (STRECK, INC., priority 2016, published 2019).

What was measured:
Assay in all cases: Time to stabilization (viability and sterility after addition of stabilizer)
[1] = test system: E. coli; type: cell-based, Escherichia coli
Description: (§1) In one example, bacterial cells containing target gene sequences were stabilized with various cross-linkers and evaluated by microbiological methods. Viability and sterility were evaluated at various time points following addition of stabilizer. Time to stabilization was evaluated for particular bacteria/stabilizer combinations as shown below in Table 1.

[2] = test system: C. psuedo; type: cell-based, Corynebacterium pseudodiphtheriticum
Description: as §1

[3] = test system: N. sicca; type: cell-based, Neisseria sicca
Description: as §1

| Compound | Time to Stabilization [1] | Time to Stabilization [2] | Time to Stabilization [3] |
| --- | --- | --- | --- |
| O=C(CCCCCCC(=O)ON1C(=O)CC(S(=O)(=O)O)C1=O)ON1C(=O)CC(S(=O)(=O)O)C1=O (centres unmarked) [Bis[sulfosuccinimidyl] Suberate] | >5 days |  |  |
| O=C(CCCCCCC(=O)ON1C(=O)CCC1=O)ON1C(=O)CCC1=O [Disuccinimidyl Suberate] | 5 days |  |  |
| C=O [Formaldehyde] | 1 days | 24 h | 24 h |
| O=CCCCC=O [Glutaraldehyde] | 0.083 days | 24 h | 2 h |
| o-Phthalaldehyde | 0.0104 days | 24 h | 2 h |
